Measurements reported in US9073855B2, “BCL-2 selective apoptosis-inducing agents for the treatment of cancer and immune diseases” (AbbVie Inc., priority 2008, dated 2015).

Columns and labels:
GST-Bcl-XL = GST-Bcl-XL (Homo sapiens, UniProt Q07817); assay: TR-FRET binding assay, GST-Bcl-XL with F-Bak peptide probe; settings: TR-FRET Binding Affinity, GST-Bcl-XL, F-Bak peptide probe
How it was run: (§1)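 Ki was derived with Wang's equation for competitive binding of two ligands. The read-out was time-resolved fluorescence after a 3 h room-temperature incubation, using a Tb-labelled antibody donor and the F-Bak peptide acceptor (excitation 340/35 nm). Test compounds entered as DMSO serial dilutions starting at 50 μM, which was the 2× concentration.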

FL5.12/Bcl-2 cells = assay: FL5.12/Bcl-2 cell viability assay under IL-3 withdrawal (CellTitre Glo); format: cell-based, murine; settings: Mus musculus, IL-3 withdrawn 48 hrs, then 24 hrs with compound
Description: FL5.12 is an IL-3 dependent prolymphocytic murine cell line that undergoes apoptosis upon IL-3 withdrawal as a result of the upregulation of pro-apoptotic Bcl-2 proteins such as Bim and Puma. Stable overexpression of anti-apoptotic Bcl-2 protein (FL5.12/Bcl-2) protects against apoptosis induced by IL-3 withdrawal by sequestration of Bim and Puma. […] The ability of compounds to kill FL5.12/Bcl-2 cells upon IL-3 withdrawal is a direct measure of the compounds' ability to inhibit anti-apoptotic Bcl-2 protein function.
Wild type FL5.12/Bcl-2 overexpressing stable transfectants were cultured in RPMI-1640 supplemented with 2 mM L-glutamine, 10% FBS, 1 mM sodium pyruvate, 2 mM HEPES, 1% penicillin/streptomycin (Invitrogen), 57 μM β-ME, and 10% WEHI-3B conditioned medium (source of IL-3) and maintained at 37° C. containing 5% CO2. 1×10^6 cells/ml were washed 1×PBS and resuspended in medium not supplemented with 10% WEHI-3B for 48 hrs prior to cytotoxicity assays. Cells were then treated for an additional 24 hrs in the presence of various concentrations of the indicated compounds. Cell viability was assessed by CellTitre Glo assay (Promega Corp.) according to the manufacturer's recommendations.

GST-Bcl-2 = GST-Bcl-2 (Homo sapiens, UniProt P10415); assay: TR-FRET binding assay, GST-Bcl-2 with F-Bak peptide probe; settings: TR-FRET Binding Affinity, GST-Bcl-2, F-Bak peptide probe
How it was run: as §1

Sequence of GST-Bcl-2 (P10415 whole entry): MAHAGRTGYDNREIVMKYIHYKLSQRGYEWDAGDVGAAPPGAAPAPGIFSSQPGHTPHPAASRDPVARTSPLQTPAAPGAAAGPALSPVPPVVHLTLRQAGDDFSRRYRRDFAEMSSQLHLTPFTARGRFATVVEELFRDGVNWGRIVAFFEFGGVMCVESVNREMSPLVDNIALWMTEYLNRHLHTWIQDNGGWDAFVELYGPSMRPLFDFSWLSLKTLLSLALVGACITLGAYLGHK
Sequence of GST-Bcl-XL (Q07817 whole entry): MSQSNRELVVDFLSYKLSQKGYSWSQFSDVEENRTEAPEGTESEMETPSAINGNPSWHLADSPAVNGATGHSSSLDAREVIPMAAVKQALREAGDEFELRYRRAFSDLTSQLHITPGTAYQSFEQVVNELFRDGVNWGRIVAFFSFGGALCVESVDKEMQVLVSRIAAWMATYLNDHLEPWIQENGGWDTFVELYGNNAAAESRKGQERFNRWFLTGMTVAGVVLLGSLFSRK

Compound | Ki (GST-Bcl-XL) [nM] | EC50 (FL5.12/Bcl-2 cells) [nM] | Ki (GST-Bcl-2) [nM]
CCN(CC)C1CCC(Nc2ccc(S(=O)(=O)NC(=O)c3ccc(N4CCN(CC5=C(c6ccc(Cl)cc6)CC(C)(C)CC5)CC4)cc3Oc3ccc4[nH]ccc4c3)cc2[N+](=O)[O-])CC1 (stereo not drawn) [Example 201, 4-(4-{[2-(4-chlorophenyl)-4,4-dimethylcyclohex-1-en-1-yl]methyl}piperazin-1-yl)-N-[(4-{[4-(diethylamino)cyclohexyl]amino}-3-nitrophenyl)sulfonyl]-2-(1H-indol-5-yloxy)benzamide] | 24.6 | 17.4 | 0.125
CN(C)C1CCC(Nc2ccc(S(=O)(=O)NC(=O)c3ccc(N4CCN(CC5=C(c6ccc(Cl)cc6)CC(C)(C)CC5)CC4)cc3Oc3cccc4[nH]ccc34)cc2[N+](=O)[O-])CC1 (stereo not drawn) [Example 202, 4-(4-{[2-(4-chlorophenyl)-4,4-dimethylcyclohex-1-en-1-yl]methyl}piperazin-1-yl)-N-[(4-{[4-(dimethylamino)cyclohexyl]amino}-3-nitrophenyl)sulfonyl]-2-(1H-indol-4-yloxy)benzamide] | 5.07 | 13.8 | 0.052
CCN(CC)C1CCC(Nc2ccc(S(=O)(=O)NC(=O)c3ccc(N4CCN(CC5=C(c6ccc(Cl)cc6)CC(C)(C)CC5)CC4)cc3Oc3cccc4[nH]ccc34)cc2[N+](=O)[O-])CC1 (stereo not drawn) [Example 203, 4-(4-{[2-(4-chlorophenyl)-4,4-dimethylcyclohex-1-en-1-yl]methyl}piperazin-1-yl)-N-[(4-{[4-(diethylamino)cyclohexyl]amino}-3-nitrophenyl)sulfonyl]-2-(1H-indol-4-yloxy)benzamide] | 4.3 | 22.3 | 0.031
CC1(C)CCC(CN2CCN(c3ccc(C(=O)NS(=O)(=O)c4ccc(N[C@H]5CC[C@H](N6CCOCC6)CC5)c([N+](=O)[O-])c4)c(Oc4cccc5[nH]ccc45)c3)CC2)=C(c2ccc(Cl)cc2)C1 [Example 204, Trans-4-(4-{[2-(4-chlorophenyl)-4,4-dimethylcyclohex-1-en-1-yl]methyl}piperazin-1-yl)-2-(1H-indol-4-yloxy)-N-({4-[(4-morpholin-4-ylcyclohexyl)amino]-3-nitrophenyl}sulfonyl)benzamide] | 42.3 | 27.4 | 0.145
CN(C)CCOc1cccc(-c2ccc(Cl)cc2)c1CN1CCN(c2ccc(C(=O)NS(=O)(=O)c3ccc(NC4CCN(C)CC4)c([N+](=O)[O-])c3)c(Oc3cccc4[nH]ccc34)c2)CC1 [Example 205, 4-[4-({4′-chloro-3-[2-(dimethylamino)ethoxy]-1,1′-biphenyl-2-yl}methyl)piperazin-1-yl]-2-(1H-indol-4-yloxy)-N-({4-[(1-methylpiperidin-4-yl)amino]-3-nitrophenyl}sulfonyl)benzamide] | 3.57 | 37.5 | 0.005
CC(c1ccccc1-c1ccc(Cl)cc1)N1CCN(c2ccc(C(=O)NS(=O)(=O)c3ccc(NC4CCN(C)CC4)c([N+](=O)[O-])c3)c(Oc3cccc4[nH]ccc34)c2)CC1 (stereo not drawn) [Example 206, 4-{4-[1-(4′-chloro-1,1′-biphenyl-2-yl)ethyl]piperazin-1-yl}-2-(1H-indol-4-yloxy)-N-({4-[(1-methylpiperidin-4-yl)amino]-3-nitrophenyl}sulfonyl)benzamide] | > 660 | 5.01 | 0.083
CN(C)C1(CNc2ccc(S(=O)(=O)NC(=O)c3ccc(N4CCN(CC5=C(c6ccc(Cl)cc6)CC(C)(C)CC5)CC4)cc3Oc3ccc4[nH]ccc4c3)cc2[N+](=O)[O-])CCOCC1 [Example 207, 4-(4-{[2-(4-chlorophenyl)-4,4-dimethylcyclohex-1-en-1-yl]methyl}piperazin-1-yl)-N-{[4-({[4-(dimethylamino)tetrahydro-2H-pyran-4-yl]methyl}amino)-3-nitrophenyl]sulfonyl}-2-(1H-indol-5-yloxy)benzamide] | > 660 | 120 | 0.218
CC1(C)CCC(CN2CCN(c3ccc(C(=O)NS(=O)(=O)c4ccc(NC5CCCCC5N)c([N+](=O)[O-])c4)c(Oc4ccc5[nH]ccc5c4)c3)CC2)=C(c2ccc(Cl)cc2)C1 (stereo not drawn) [Example 208, N-({4-[(2-aminocyclohexyl)amino]-3-nitrophenyl}sulfonyl)-4-(4-{[2-(4-chlorophenyl)-4,4-dimethylcyclohex-1-en-1-yl]methyl}piperazin-1-yl)-2-(1H-indol-5-yloxy)benzamide] | > 660 | 264 | 0.589
CN(C)CC#Cc1ccc(-c2ccc(Cl)cc2)c(CN2CCN(c3ccc(C(=O)NS(=O)(=O)c4ccc(NCC5CCOCC5)c([N+](=O)[O-])c4)c(Oc4cccc5[nH]ccc45)c3)CC2)c1 [Example 209, 4-[4-({4′-chloro-4-[3-(dimethylamino)prop-1-ynyl]-1,1′-biphenyl-2-yl}methyl)piperazin-1-yl]-2-(1H-indol-4-yloxy)-N-({3-nitro-4-[(tetrahydro-2H-pyran-4-ylmethyl)amino]phenyl}sulfonyl)benzamide] | > 660 | 139 | 0.267
CC1(C)CCC(CN2CCN(c3ccc(C(=O)NS(=O)(=O)c4ccc(NC5CCN(CCCC(F)(F)F)CC5)c([N+](=O)[O-])c4)c(Oc4cccc5[nH]ccc45)c3)CC2)=C(c2ccc(Cl)cc2)C1 [Example 210, 4-(4-{[2-(4-chlorophenyl)-4,4-dimethylcyclohex-1-en-1-yl]methyl}piperazin-1-yl)-2-(1H-indol-4-yloxy)-N-[(3-nitro-4-{[1-(4,4,4-trifluorobutyl)piperidin-4-yl]amino}phenyl)sulfonyl]benzamide] | > 660 | 257 | 0.624
CN1CCC(O)(CCNc2ccc(S(=O)(=O)NC(=O)c3ccc(N4CCN(CC5=C(c6ccc(Cl)cc6)CC(C)(C)CC5)CC4)cc3Oc3ccc4[nH]ccc4c3)cc2[N+](=O)[O-])CC1 [Example 211, 4-(4-{[2-(4-chlorophenyl)-4,4-dimethylcyclohex-1-en-1-yl]methyl}piperazin-1-yl)-N-[(4-{[2-(4-hydroxy-1-methylpiperidin-4-yl)ethyl]amino}-3-nitrophenyl)sulfonyl]-2-(1H-indol-5-yloxy)benzamide] | 5.61 | 17.1 | 0.009
CC1(C)CCC(CN2CCN(c3ccc(C(=O)NS(=O)(=O)c4ccc(NC5CCN(c6nccs6)CC5)c([N+](=O)[O-])c4)c(Oc4ccc5[nH]ccc5c4)c3)CC2)=C(c2ccc(Cl)cc2)C1 [Example 212, 4-(4-{[2-(4-chlorophenyl)-4,4-dimethylcyclohex-1-en-1-yl]methyl}piperazin-1-yl)-2-(1H-indol-5-yloxy)-N-[(3-nitro-4-{[1-(1,3-thiazol-2-yl)piperidin-4-yl]amino}phenyl)sulfonyl]benzamide] | > 660 | > 500 | 0.737
O=C(NS(=O)(=O)c1ccc(NCC2CCOCC2)c([N+](=O)[O-])c1)c1ccc(N2CCN(Cc3cc(OCCO)ccc3-c3ccc(Cl)cc3)CC2)cc1Oc1cccc2[nH]ccc12 [Example 213, 4-(4-{[4′-chloro-4-(2-hydroxyethoxy)-1,1′-biphenyl-2-yl]methyl}piperazin-1-yl)-2-(1H-indol-4-yloxy)-N-({3-nitro-4-[(tetrahydro-2H-pyran-4-ylmethyl)amino]phenyl}sulfonyl)benzamide] | > 660 | 432 | < 0.01
CC1(C)CCC(CN2CCN(c3ccc(C(=O)NS(=O)(=O)c4ccc(NC5CCN(CC6CC6)CC5)c([N+](=O)[O-])c4)c(Oc4ccc5[nH]ccc5c4)c3)CC2)=C(c2ccc(Cl)cc2)C1 [Example 214, 4-(4-{[2-(4-chlorophenyl)-4,4-dimethylcyclohex-1-en-1-yl]methyl}piperazin-1-yl)-N-[(4-{[1-(cyclopropylmethyl)piperidin-4-yl]amino}-3-nitrophenyl)sulfonyl]-2-(1H-indol-5-yloxy)benzamide] | 64 | 15.7 | 0.082
CN1CCN(Nc2ccc(S(=O)(=O)NC(=O)c3ccc(N4CCN(CC5=C(c6ccc(Cl)cc6)CC(C)(C)CC5)CC4)cc3Oc3cccc4[nH]ccc34)cc2S(=O)(=O)C(F)(F)F)CC1 [Example 215, 4-(4-{[2-(4-chlorophenyl)-4,4-dimethylcyclohex-1-en-1-yl]methyl}piperazin-1-yl)-2-(1H-indol-4-yloxy)-N-({4-[(4-methylpiperazin-1-yl)amino]-3-[(trifluoromethyl)sulfonyl]phenyl}sulfonyl)benzamide] | 60.8 | 116 | 0.503
CC1(C)CCC(CN2CCN(c3ccc(C(=O)NS(=O)(=O)c4ccc(NC5CCN(CCCC(F)(F)F)CC5)c([N+](=O)[O-])c4)c(Oc4ccc5[nH]ccc5c4)c3)CC2)=C(c2ccc(Cl)cc2)C1 [Example 216, 4-(4-{[2-(4-chlorophenyl)-4,4-dimethylcyclohex-1-en-1-yl]methyl}piperazin-1-yl)-2-(1H-indol-5-yloxy)-N-[(3-nitro-4-{[1-(4,4,4-trifluorobutyl)piperidin-4-yl]amino}phenyl)sulfonyl]benzamide] | > 660 | 39.8 | 0.615
